Measured values reported in ChEMBL document CHEMBL2062359, “Pyrimidinopyrimidine inhibitors of ketohexokinase: exploring the ring C2 group that interacts with Asp-27B in the ligand binding pocket” (Bioorg Med Chem Lett, 2012).

What was measured:
Ketohexokinase [1] = biological target: T1, Ketohexokinase (Homo sapiens, UniProt P50053); test: Inhibition of KHKC in human HepG2 cells assessed as level of fructose-1-phosphate; format: cell-based
T1 sequence (P50053 whole entry): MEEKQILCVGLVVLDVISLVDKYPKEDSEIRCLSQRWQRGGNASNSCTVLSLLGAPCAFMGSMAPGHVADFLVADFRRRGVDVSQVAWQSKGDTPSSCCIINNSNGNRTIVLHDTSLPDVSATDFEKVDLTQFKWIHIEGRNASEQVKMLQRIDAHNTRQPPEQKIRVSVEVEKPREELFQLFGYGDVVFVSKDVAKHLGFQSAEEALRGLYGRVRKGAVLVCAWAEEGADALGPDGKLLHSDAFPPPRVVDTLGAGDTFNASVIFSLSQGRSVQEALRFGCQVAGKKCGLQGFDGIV

Ketohexokinase [2] = biological target: T1, Ketohexokinase; test: Inhibition of recombinant human hepatic KHKC
[3] = biological target: Serine/threonine-protein kinase Chk1 (Homo sapiens, UniProt O14757); test: Inhibition of CHEK1 by FRET assay
[4] = biological target: AMP-activated protein kinase (AMPK) alpha-1/beta-1/gamma-1 (Homo sapiens, UniProt P54619+Q13131+Q9Y478); test: Inhibition of AMPK A1/B1/G1 by FRET assay; format: protein-complex assay
[5] = biological target: Tyrosine-protein kinase ABL1 (Homo sapiens, UniProt P00519); test: Inhibition of ABL1 by FRET assay
[6] = biological target: Cyclin-dependent kinase 1/cyclin B1 (Homo sapiens, UniProt P06493); test: Inhibition of CDK1/cyclin B by FRET assay; format: protein-complex assay
[7] = biological target: Death-associated protein kinase 3 (Homo sapiens, UniProt O43293); test: Inhibition of DAPK3 by FRET assay
[8] = biological target: Calcium/calmodulin-dependent protein kinase type 1D (Homo sapiens, UniProt Q8IU85); test: Inhibition of CAMK1D by FRET assay
[9] = biological target: Glycogen synthase kinase-3 beta (Homo sapiens, UniProt P49841); test: Inhibition of GSK3B by FRET assay
[10] = biological target: RAC-alpha serine/threonine-protein kinase (Homo sapiens, UniProt P31749); test: Inhibition of AKT1 by FRET assay
[11] = biological target: Serine/threonine-protein kinase 26 (Homo sapiens, UniProt Q9P289); test: Inhibition of MST4 by FRET assay
[12] = biological target: Casein kinase I isoform delta (Homo sapiens, UniProt P48730); test: Inhibition of CSNK1D by FRET assay
[13] = biological target: Serine/threonine-protein kinase Chk2 (Homo sapiens, UniProt O96017); test: Inhibition of CHEK2 by FRET assay
[14] = biological target: Ribosomal protein S6 kinase alpha-3 (Homo sapiens, UniProt P51812); test: Inhibition of RPS6KA3 by FRET assay
Ephrin type-B receptor 1 = Ephrin type-B receptor 1 (Homo sapiens, UniProt P54762); test: Inhibition of EPHB1 by FRET assay
[15] = biological target: Tyrosine-protein kinase JAK2 (Homo sapiens, UniProt O60674); test: Inhibition of JAK2 by FRET assay
[16] = biological target: cAMP-dependent protein kinase catalytic subunit alpha (Homo sapiens, UniProt P17612); test: Inhibition of PRKACA by FRET assay
Activin receptor type-1B = Activin receptor type-1B (Homo sapiens, UniProt P36896); test: Inhibition of ALK4 by FRET assay
Aurora kinase A = Aurora kinase A (Homo sapiens, UniProt O14965); test: Inhibition of AURKA by FRET assay
[17] = biological target: Serine/threonine-protein kinase PLK3 (Homo sapiens, UniProt Q9H4B4); test: Inhibition of PLK3 by FRET assay
[18] = biological target: Mitogen-activated protein kinase 13 (Homo sapiens, UniProt O15264); test: Inhibition of MAPK13 by FRET assay
[19] = biological target: Protein kinase C theta type (Homo sapiens, UniProt Q04759); test: Inhibition of PRKCQ by FRET assay
[20] = biological target: High affinity nerve growth factor receptor (Homo sapiens, UniProt P04629); test: Inhibition of NTRK1 by FRET assay
[21] = biological target: Serine/threonine-protein kinase pim-2 (Homo sapiens, UniProt Q9P1W9); test: Inhibition of PIM2 by FRET assay
[22] = biological target: Serine/threonine-protein kinase Nek2 (Homo sapiens, UniProt P51955); test: Inhibition of NEK2 by FRET assay
[23] = biological target: Rho-associated protein kinase 1 (Homo sapiens, UniProt Q13464); test: Inhibition of ROCK1 by FRET assay
[24] = biological target: Serine/threonine-protein kinase PAK 3 (Homo sapiens, UniProt O75914); test: Inhibition of PAK3 by FRET assay
[25] = biological target: Interleukin-1 receptor-associated kinase 4 (Homo sapiens, UniProt Q9NWZ3); test: Inhibition of IRAK4 by FRET assay

Chain of Rho-associated protein kinase 1 (Q13464 whole entry): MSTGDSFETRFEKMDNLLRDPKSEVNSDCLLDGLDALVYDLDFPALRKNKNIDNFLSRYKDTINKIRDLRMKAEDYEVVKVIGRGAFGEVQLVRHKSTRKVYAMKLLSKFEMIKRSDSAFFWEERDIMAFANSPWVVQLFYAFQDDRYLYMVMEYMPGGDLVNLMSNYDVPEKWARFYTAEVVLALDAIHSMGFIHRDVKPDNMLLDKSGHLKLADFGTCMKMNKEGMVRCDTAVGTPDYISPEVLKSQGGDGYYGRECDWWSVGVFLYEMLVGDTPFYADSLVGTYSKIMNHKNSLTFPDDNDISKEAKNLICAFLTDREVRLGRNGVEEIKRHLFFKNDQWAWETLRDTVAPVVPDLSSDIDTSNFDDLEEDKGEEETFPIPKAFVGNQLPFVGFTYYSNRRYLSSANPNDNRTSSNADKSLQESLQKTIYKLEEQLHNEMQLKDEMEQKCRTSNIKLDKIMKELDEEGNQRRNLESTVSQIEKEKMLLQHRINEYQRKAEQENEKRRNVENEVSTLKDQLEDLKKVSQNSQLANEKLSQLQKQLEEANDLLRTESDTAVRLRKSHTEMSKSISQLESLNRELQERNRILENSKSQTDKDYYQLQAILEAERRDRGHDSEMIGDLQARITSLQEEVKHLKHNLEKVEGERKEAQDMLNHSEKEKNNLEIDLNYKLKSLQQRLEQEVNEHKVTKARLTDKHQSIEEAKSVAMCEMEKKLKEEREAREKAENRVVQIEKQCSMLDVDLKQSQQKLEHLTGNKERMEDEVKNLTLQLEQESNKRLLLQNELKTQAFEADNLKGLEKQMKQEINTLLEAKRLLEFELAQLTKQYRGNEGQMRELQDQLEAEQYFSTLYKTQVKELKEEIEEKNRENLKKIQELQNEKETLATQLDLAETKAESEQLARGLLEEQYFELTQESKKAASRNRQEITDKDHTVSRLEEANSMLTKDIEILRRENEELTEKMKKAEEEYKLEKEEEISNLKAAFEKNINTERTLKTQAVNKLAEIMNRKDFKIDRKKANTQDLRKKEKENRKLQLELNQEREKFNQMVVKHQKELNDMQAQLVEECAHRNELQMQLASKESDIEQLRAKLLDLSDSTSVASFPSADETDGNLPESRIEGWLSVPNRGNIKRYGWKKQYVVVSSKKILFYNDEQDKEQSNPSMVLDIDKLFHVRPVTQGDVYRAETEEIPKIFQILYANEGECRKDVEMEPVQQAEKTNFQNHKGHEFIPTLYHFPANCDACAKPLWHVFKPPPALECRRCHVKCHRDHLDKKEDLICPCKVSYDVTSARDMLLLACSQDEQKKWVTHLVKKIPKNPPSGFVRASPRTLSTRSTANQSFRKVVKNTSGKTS
Chain of Mitogen-activated protein kinase 13 (O15264 whole entry): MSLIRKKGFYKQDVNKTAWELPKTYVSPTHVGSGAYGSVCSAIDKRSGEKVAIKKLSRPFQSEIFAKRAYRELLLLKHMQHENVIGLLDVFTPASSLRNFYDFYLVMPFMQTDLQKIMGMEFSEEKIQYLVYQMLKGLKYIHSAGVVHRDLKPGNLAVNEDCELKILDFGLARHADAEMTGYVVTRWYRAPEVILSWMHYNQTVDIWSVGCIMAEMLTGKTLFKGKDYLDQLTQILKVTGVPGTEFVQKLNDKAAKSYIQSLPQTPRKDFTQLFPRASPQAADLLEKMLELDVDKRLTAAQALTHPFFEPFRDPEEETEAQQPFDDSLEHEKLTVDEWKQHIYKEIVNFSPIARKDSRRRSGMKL
Chain of Protein kinase C theta type (Q04759 whole entry): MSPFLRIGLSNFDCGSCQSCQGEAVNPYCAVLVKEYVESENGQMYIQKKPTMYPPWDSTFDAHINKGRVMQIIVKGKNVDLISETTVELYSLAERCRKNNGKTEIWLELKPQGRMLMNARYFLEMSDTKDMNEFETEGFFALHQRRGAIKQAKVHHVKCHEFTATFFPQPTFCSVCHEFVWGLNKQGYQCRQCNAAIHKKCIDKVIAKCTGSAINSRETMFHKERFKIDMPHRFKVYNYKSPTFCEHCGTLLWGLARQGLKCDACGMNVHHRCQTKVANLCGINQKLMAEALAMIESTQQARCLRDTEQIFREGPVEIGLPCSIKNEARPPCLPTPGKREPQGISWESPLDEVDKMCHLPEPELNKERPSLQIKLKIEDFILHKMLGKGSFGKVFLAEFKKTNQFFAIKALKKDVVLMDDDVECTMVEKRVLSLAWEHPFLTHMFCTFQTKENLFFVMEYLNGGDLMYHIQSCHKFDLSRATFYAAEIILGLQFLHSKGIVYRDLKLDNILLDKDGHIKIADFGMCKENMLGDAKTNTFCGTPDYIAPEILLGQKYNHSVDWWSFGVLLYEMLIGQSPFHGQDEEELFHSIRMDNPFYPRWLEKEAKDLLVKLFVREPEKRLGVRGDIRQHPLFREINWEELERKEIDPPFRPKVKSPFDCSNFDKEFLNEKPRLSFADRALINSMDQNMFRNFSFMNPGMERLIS
Chain of Cyclin-dependent kinase 1/cyclin B1 (P06493 whole entry): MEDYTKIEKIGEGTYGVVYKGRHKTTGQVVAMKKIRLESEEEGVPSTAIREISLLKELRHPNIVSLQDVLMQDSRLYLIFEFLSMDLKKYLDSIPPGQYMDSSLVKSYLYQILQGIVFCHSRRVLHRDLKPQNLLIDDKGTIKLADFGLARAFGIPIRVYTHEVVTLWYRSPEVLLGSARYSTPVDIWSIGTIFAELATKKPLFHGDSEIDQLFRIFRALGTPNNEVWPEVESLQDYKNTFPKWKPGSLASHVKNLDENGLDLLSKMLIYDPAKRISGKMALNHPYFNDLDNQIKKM
Chain of Cyclin-dependent kinase 1/cyclin B1 (P14635 whole entry, further chain): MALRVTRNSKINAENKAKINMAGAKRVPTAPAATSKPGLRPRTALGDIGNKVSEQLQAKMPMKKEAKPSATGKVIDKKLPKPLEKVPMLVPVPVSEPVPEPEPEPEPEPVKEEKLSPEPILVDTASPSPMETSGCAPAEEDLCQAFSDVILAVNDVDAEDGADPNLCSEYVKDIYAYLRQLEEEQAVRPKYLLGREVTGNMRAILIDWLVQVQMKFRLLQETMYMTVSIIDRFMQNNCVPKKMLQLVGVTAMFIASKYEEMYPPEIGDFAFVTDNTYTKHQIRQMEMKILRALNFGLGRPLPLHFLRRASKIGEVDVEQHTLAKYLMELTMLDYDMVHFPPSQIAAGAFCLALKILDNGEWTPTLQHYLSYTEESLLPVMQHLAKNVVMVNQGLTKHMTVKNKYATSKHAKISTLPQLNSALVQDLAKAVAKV
Chain of High affinity nerve growth factor receptor (P04629 whole entry): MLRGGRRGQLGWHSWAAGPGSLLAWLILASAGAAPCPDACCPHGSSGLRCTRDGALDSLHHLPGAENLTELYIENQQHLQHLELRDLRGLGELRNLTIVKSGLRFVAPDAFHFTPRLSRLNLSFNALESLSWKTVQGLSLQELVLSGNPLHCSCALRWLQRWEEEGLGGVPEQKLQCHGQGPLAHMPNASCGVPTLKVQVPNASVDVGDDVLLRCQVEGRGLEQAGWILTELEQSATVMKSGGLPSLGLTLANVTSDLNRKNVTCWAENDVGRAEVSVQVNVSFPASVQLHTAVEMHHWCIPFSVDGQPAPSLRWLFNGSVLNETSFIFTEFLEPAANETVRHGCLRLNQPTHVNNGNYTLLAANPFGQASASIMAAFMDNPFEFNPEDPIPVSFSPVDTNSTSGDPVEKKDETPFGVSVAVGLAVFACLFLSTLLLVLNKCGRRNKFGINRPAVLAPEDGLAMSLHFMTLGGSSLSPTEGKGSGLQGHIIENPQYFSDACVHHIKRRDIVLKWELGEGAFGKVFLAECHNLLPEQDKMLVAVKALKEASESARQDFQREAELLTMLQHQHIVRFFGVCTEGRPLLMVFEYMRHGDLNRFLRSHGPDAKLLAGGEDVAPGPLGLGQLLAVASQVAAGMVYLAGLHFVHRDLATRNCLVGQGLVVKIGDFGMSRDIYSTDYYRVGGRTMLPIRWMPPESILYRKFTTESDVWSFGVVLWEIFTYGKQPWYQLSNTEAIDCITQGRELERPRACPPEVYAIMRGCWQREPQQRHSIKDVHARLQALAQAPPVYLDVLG
Chain of Serine/threonine-protein kinase Chk2 (O96017 whole entry): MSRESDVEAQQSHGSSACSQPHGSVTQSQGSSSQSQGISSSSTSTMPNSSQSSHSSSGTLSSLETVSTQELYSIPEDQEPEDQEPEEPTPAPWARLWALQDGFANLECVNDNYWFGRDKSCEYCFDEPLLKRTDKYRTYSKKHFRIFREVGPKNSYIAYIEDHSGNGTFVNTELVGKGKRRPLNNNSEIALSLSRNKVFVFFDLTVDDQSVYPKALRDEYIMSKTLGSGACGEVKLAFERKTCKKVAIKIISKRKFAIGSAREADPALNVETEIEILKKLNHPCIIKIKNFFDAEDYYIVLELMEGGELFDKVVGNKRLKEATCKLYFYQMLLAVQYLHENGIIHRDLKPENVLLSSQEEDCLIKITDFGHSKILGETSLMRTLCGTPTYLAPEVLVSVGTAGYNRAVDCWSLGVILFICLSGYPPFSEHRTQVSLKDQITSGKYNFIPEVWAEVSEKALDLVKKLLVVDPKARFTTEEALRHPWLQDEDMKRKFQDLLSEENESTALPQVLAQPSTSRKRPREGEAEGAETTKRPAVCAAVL
Chain of Aurora kinase A (O14965 whole entry): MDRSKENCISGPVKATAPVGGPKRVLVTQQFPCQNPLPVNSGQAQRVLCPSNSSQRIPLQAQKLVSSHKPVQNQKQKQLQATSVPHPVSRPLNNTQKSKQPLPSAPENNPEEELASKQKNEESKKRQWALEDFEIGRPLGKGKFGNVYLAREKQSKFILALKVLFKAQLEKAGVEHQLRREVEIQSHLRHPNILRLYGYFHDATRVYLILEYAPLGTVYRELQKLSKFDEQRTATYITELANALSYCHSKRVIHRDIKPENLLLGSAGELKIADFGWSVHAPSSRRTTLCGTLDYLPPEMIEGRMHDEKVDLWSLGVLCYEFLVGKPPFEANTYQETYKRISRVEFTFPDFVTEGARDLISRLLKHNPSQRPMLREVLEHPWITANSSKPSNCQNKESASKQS

`CSc1ccccc1Nc1nc(N2CCNCC2)nc2c(NCC3CC3)ncnc12` gave an IC50 (Ketohexokinase [1]) of less than 500 nM.

`CSc1ccccc1Nc1nc(N2CCNC(C)C2)nc2c(NCC3CC3)ncnc12` (stereo not given) was tested, and the IC50 (Ketohexokinase [2]) was 70 nM.

`CSc1ccccc1Nc1nc(N2CCNC[C@H]2C)nc2c(NCC3CC3)ncnc12` gave an IC50 (Ketohexokinase [2]) of 58 nM.

Compound `CSc1ccccc1Nc1nc(N2C[C@@H](C)N[C@@H](C)C2)nc2c(NCC3CC3)ncnc12` has an IC50 (Ketohexokinase [2]) of 110 nM.

Compound `CSc1ccccc1Nc1nc(N2CCNC(C)(C)C2)nc2c(NCC3CC3)ncnc12` has an IC50 (Ketohexokinase [2]) of 40 nM.

`CSc1ccccc1Nc1nc(N(C)CC2CCNCC2)nc2c(NCC3CC3)ncnc12` gave an IC50 (Ketohexokinase [2]) of 66 nM.

With `CSc1ccccc1Nc1nc(N2CCC[C@@H]3CNC[C@@H]32)nc2c(NCC3CC3)ncnc12` the IC50 (Ketohexokinase [2]) was 440 nM.

`CSc1ccccc1Nc1nc(N2C[C@@H]3CCCN[C@@H]3C2)nc2c(NCC3CC3)ncnc12` showed an IC50 (Ketohexokinase [2]) of 300 nM.

`CSc1ccccc1Nc1nc(N2C[C@@H]3C[C@H]2CN3)nc2c(NCC3CC3)ncnc12` gave an IC50 (Ketohexokinase [2]) of 4600 nM.

`CSc1ccccc1Nc1nc(N2C3CCC2CC(N)C3)nc2c(NCC3CC3)ncnc12` (stereo not given) gave an IC50 (Ketohexokinase [2]) of 800 nM.

`CSc1ccccc1Nc1nc(N2CCNc3ccccc3C2)nc2c(NCC3CC3)ncnc12` was tested, and the IC50 (Ketohexokinase [2]) was 6000 nM.

In the case of `CSc1ccccc1Nc1nc(N2CCC3(CCNC3)C2)nc2c(NCC3CC3)ncnc12` (stereo not given), the IC50 (Ketohexokinase [2]) is reported as 43 nM.

With `CSc1ccccc1Nc1nc(N2CCC3(CNC3)C2)nc2c(NCC3CC3)ncnc12` the IC50 (Ketohexokinase [2]) was 2 nM and the IC50 (Ketohexokinase [1]) was 150 nM.

`CSc1ccccc1Nc1nc(N2CCC3(CCNCC3)CC2)nc2c(NCC3CC3)ncnc12` showed an IC50 (Ketohexokinase [2]) of 15 nM.

For `CSc1ccccc1Nc1nc(N2CCN(C3CCNCC3)CC2)nc2c(NCC3CC3)ncnc12`, the IC50 [3] was less than 10000 nM, the IC50 [4] was less than 10000 nM and the IC50 [5] was less than 10000 nM. For the same compound, the IC50 [6] was less than 10000 nM, the IC50 [7] was less than 10000 nM and the IC50 [8] was less than 10000 nM. It also gave an IC50 [9] of less than 10000 nM, an IC50 [10] of less than 10000 nM and an IC50 (Ketohexokinase [2]) of 48 nM. The IC50 [11] was less than 10000 nM, the IC50 [12] was less than 10000 nM and the IC50 [13] was less than 10000 nM. For the same compound, the IC50 [14] was less than 10000 nM, the IC50 (Ephrin type-B receptor 1) was less than 10000 nM and the IC50 [15] was less than 10000 nM. The IC50 [16] was less than 10000 nM, the IC50 (Activin receptor type-1B) was less than 10000 nM and the IC50 (Aurora kinase A) was less than 10000 nM. It also gave an IC50 [17] of less than 10000 nM, an IC50 [18] of less than 10000 nM and an IC50 [19] of less than 10000 nM. It also gave an IC50 [20] of less than 10000 nM, an IC50 [21] of less than 10000 nM and an IC50 [22] of less than 10000 nM. It also gave an IC50 [23] of less than 10000 nM, an IC50 [24] of less than 10000 nM and an IC50 [25] of less than 10000 nM.

For `CSc1ccccc1Nc1nc(N2CCC(N3CCNCC3)CC2)nc2c(NCC3CC3)ncnc12`, the IC50 (Ketohexokinase [2]) was 28 nM.

With `CSc1ccccc1Nc1nc(N2CCC(C3CCNCC3)CC2)nc2c(NCC3CC3)ncnc12` the IC50 (Ketohexokinase [2]) was 50 nM.

`CSc1ccccc1Nc1nc(N2CCC(N3CCN(C)CC3)CC2)nc2c(NCC3CC3)ncnc12` gave an IC50 (Ketohexokinase [2]) of 30 nM.
